According to patent US20050148514A1, “Method and composition for treatment of angiogenesis” (priority 2003, published 2005):
“Also recorded” adds a separate entry of the source. Where no end group is shown, it is not given here.

What was measured:
[1] = system: MMP-9; test: Gelatin zymography of culture media of MatLyLu tumor cells; type: cell-based; conditions: 50 ug/ml collagen type-I, 500 ug/ml and 1 mg/ml, 72 hrs, serum free
Procedure: (§1) Zymography. Zymography is a technique generally used to analyze the activity of matrix metalloproteinases (MMPs) in biological samples. It involves the electrophoretic separation of proteins under denaturing (Sodium Dodecyl Sulfate (SDS)) but non-reducing conditions through a polyacrylamide gel containing gelatin (for example, 10% gel containing 1 mg/ml gelatin for MMP-9 and MMP-2 assays). The resolved proteins are re-natured by exchanging SDS with a non-ionic detergent such as Triton X-100 and the gel is incubated in an incubation buffer for activation of MMP-2 and MMP-9 (for example at 37° C. for 18 hrs). The gel is stained with Coomassie blue and the MMP-2 and MMP-9 bands may be visualized as clear bands against a blue background (i.e., the MMPs degrade the gelatin and are visualized as clear bands; pro MMP-2 is 68 kDa and pro-MMP-9 is 92 kDa). These bands can be quantified using densitometry.
In the experiment presented in FIG. 1, 2.5×10^5 MatLyLu tumor cells (American Type Culture Collection No.: JHU-5)) were seeded in T-25 flasks containing RPMI with 10% fetal bovine serum (FBS). […]
The media were collected after 72 hours of exposure to the PCK3145 derivative and subjected to gelatin zymography. […] The band intensities were determined using the Image Quant software (version 5.0) from molecular Dynamics. […]

[2] = system: proMMP-2; test: Gelatin zymography of conditioned media of serum-starved HUVEC; type: cell-based, Human; conditions: 300 μg/ml, 24 hours
Procedure: as §1
Cell culture. Human umbilical vein endothelial cells (HUVEC) and pulmonary aortic smooth muscle cells (PASMC) were obtained from Clonetics and maintained in endothelial cell basal medium-2, (EBM-2; Clonetics) and smooth muscle medium-2 (SmGM-2; Clonetics), respectively. […]
The effect of the PCK3145 derivative (SEQ ID NO.:7) on MMP extracellular levels was assessed by gelatin-zymography in the conditioned media of serum-starved HUVEC. […]

[3] = target: T1, PDGF receptor (PDGFR) (Homo sapiens, UniProt P09619); test: PDGF-induced PDGFR phosphorylation in PASMC; type: cell-based; conditions: treatment as for HUVEC
T1 construct: host or cells: PASMC (pulmonary aortic smooth muscle cells)
Procedure: Cell culture. Human umbilical vein endothelial cells (HUVEC) and pulmonary aortic smooth muscle cells (PASMC) were obtained from Clonetics and maintained in endothelial cell basal medium-2, (EBM-2; Clonetics) and smooth muscle medium-2 (SmGM-2; Clonetics), respectively. Cells were cultured at 37° C. under a humidified atmosphere containing 5% CO2. For experimental purposes, cells were plated in 8 100-mm plastic dishes at 5,000 cells/cm^2 and were grown to confluence before overnight serum starvation. Cells were treated with vehicle or with a PCK3145 derivative diluted in 0.1 N NaOH, and stimulated with 50 ng/ml VEGF, PDGF or with 1 μM S1P.
Immunoprecipitation and immunoblotting procedures. After treatment, cells were washed once with phosphate-buffered saline (PBS) containing 1 mM sodium orthovanadate and were incubated in the same medium for 1 h at 4° C. The cells were solubilized on ice in lysis buffer (150 mM NaCl, 10 mM Tris-HCl, pH 7.4, 1 mM EDTA, 1 mM EGTA, 0.5% Nonidet P-40, 1% Triton X-100) containing 1 mM sodium orthovanadate. The cells were then scraped from the culture dishes and the resulting lysates were clarified by centrifugation at 10,000 g for 10 min. Protein concentrations were determined using the micro bicinchoninic acid method. For immunoprecipitation studies, lysates were clarified by a 1 h incubation at 4° C. with a mixture of Protein A/Protein G Sepharose beads. […]

[4] = system: MAPK/JNK pathway (SRE); test: SEAP gene-reporter assay in U-87 glioma cells, SRE element; type: cell-based; conditions: alkaline phosphatase activity in extracellular media
Procedure: (§2) In order to investigate the potential intracellular pathways triggered by the PCK3145 derivative, a gene-reporter assay using the SEAP (Secreted Alkaline Phosphatase) Mercury Profiling Kit (CLONTECH) was performed in glioma cells (U-87). This assay enables the monitoring of transcription factors that are triggered by a particular experimental condition by assaying the alkaline phosphatase activity in the extracellular media. […] The induction of the MAPK pathway by the PCK3145 derivative is further confirmed by the rapid and transient induction of ERK phosphorylation between 5-10 minutes (FIG. 8B) and is shown to be dose-dependent (FIG. 8C). Finally, the effects of the PCK3145 derivative were also compared to those of a scrambled peptide.

[5] = system: NFkB pathway; test: SEAP gene-reporter assay in U-87 glioma cells, NFkB element; type: cell-based; conditions: alkaline phosphatase activity in extracellular media
Procedure: as §2

[6] = system: constitutive secretion pathway; test: SEAP gene-reporter assay in U-87 glioma cells, constitutively expressed SEAP; type: cell-based
Procedure: as §2

T1 sequence (P09619 33-1106): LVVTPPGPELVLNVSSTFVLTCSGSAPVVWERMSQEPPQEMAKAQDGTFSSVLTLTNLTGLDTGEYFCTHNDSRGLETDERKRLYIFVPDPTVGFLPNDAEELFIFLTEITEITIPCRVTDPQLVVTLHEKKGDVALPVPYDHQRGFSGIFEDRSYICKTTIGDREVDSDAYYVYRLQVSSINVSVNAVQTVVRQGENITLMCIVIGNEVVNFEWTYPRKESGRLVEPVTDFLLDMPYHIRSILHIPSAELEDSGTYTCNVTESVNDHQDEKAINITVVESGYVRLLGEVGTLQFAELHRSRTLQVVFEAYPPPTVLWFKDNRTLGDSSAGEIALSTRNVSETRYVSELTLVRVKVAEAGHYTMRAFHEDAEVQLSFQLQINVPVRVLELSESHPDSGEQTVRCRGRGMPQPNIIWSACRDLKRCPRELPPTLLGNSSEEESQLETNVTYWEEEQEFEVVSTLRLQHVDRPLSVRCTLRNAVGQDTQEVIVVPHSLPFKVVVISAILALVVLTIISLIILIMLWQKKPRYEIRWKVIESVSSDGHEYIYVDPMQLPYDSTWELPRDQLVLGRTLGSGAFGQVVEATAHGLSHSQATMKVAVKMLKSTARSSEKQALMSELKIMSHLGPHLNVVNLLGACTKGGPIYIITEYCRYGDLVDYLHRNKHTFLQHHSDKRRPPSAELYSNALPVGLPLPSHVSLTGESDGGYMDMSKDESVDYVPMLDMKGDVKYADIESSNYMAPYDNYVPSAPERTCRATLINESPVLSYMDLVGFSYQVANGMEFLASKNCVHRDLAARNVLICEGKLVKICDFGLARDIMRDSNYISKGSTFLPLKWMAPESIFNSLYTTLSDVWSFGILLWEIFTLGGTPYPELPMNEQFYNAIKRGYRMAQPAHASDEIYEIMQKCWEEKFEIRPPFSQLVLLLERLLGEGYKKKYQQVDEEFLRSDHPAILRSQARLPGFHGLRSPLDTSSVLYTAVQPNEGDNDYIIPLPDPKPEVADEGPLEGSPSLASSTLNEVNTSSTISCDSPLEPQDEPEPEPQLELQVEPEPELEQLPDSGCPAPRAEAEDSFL

- PDGFR phosphorylation induced by PDGF [3]: inhibition
Sequence: EWQTDNCETCTCYET (cysteine pairing not given here)
- MMP-9 secreted in the cell culture media, zymography [1]: dose-dependent reduction
- inhibition of VEGF-induced proMMP-2 secretion [2]: approximately 50%
- SEAP reporter, MAPK/JNK pathway (SRE) [4]: triggers significantly; also recorded: extremely strong
- SEAP reporter, NFkB pathway [5]: triggers significantly
- secretion of the constitutively expressed SEAP [6]: inhibited
